Reference: PMC7870829, “Structural basis for the biosynthesis of lovastatin” (Nature Communications, 2021)

Experiments:
LovB = target: T1, LovB (Aspergillus terreus, UniProt Q9Y8A5); test: cryo-EM structure; format: binding; conditions: KR domain NADPH pocket; sample with 2 mM each Mal-CoA, NADPH and SAM; pH 8.0
T1 construct: dimer; ACP and CON domains not resolved; DSS-crosslinked with LovC for cryo-EM

LovC = target: T2, LovC (Aspergillus terreus, UniProt Q9Y7D0); test: NADPH fluorescence (Ex […] nm, Em […] nm); format: biochemical; conditions: 100 μM NADPH, 200 μM crotonoyl-CoA, 100 mM KH2PO4 pH 7.0, 2% DMSO, 25 °C
T2 construct: full-length, His-tagged (pET28_LovCcH), expressed in E. coli, without LovB
T2 sequence (Q9Y7D0 1-363): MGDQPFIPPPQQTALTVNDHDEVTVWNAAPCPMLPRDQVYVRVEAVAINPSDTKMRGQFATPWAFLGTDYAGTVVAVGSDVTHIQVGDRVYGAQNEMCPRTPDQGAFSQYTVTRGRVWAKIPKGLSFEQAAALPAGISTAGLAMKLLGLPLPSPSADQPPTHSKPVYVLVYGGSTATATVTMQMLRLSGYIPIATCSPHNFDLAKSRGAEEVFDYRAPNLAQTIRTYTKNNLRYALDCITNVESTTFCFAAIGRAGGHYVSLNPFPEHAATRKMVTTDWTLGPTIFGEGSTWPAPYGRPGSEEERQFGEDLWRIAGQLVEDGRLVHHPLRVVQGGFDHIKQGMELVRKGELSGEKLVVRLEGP

[1] = target: lovastatin nonaketide synthase (LovB), full-length, His-tagged (Aspergillus terreus) (UniProt Q9Y8A5); test: cryo-EM structure; LovB mixed with LovC and 2 mM each of Mal-CoA, NADPH and SAM, cross-linked with DSS, SEC on Superose 6 Increase (50 mM Tricine pH 8.0, 4 mM SAM), cofactors re-added, 0.1% Tween 20; maps at 2.91 Å (LovB) and 3.60 Å (LovBC with one LovC)

T1 sequence (Q9Y8A5 whole entry, the tested form may be a part): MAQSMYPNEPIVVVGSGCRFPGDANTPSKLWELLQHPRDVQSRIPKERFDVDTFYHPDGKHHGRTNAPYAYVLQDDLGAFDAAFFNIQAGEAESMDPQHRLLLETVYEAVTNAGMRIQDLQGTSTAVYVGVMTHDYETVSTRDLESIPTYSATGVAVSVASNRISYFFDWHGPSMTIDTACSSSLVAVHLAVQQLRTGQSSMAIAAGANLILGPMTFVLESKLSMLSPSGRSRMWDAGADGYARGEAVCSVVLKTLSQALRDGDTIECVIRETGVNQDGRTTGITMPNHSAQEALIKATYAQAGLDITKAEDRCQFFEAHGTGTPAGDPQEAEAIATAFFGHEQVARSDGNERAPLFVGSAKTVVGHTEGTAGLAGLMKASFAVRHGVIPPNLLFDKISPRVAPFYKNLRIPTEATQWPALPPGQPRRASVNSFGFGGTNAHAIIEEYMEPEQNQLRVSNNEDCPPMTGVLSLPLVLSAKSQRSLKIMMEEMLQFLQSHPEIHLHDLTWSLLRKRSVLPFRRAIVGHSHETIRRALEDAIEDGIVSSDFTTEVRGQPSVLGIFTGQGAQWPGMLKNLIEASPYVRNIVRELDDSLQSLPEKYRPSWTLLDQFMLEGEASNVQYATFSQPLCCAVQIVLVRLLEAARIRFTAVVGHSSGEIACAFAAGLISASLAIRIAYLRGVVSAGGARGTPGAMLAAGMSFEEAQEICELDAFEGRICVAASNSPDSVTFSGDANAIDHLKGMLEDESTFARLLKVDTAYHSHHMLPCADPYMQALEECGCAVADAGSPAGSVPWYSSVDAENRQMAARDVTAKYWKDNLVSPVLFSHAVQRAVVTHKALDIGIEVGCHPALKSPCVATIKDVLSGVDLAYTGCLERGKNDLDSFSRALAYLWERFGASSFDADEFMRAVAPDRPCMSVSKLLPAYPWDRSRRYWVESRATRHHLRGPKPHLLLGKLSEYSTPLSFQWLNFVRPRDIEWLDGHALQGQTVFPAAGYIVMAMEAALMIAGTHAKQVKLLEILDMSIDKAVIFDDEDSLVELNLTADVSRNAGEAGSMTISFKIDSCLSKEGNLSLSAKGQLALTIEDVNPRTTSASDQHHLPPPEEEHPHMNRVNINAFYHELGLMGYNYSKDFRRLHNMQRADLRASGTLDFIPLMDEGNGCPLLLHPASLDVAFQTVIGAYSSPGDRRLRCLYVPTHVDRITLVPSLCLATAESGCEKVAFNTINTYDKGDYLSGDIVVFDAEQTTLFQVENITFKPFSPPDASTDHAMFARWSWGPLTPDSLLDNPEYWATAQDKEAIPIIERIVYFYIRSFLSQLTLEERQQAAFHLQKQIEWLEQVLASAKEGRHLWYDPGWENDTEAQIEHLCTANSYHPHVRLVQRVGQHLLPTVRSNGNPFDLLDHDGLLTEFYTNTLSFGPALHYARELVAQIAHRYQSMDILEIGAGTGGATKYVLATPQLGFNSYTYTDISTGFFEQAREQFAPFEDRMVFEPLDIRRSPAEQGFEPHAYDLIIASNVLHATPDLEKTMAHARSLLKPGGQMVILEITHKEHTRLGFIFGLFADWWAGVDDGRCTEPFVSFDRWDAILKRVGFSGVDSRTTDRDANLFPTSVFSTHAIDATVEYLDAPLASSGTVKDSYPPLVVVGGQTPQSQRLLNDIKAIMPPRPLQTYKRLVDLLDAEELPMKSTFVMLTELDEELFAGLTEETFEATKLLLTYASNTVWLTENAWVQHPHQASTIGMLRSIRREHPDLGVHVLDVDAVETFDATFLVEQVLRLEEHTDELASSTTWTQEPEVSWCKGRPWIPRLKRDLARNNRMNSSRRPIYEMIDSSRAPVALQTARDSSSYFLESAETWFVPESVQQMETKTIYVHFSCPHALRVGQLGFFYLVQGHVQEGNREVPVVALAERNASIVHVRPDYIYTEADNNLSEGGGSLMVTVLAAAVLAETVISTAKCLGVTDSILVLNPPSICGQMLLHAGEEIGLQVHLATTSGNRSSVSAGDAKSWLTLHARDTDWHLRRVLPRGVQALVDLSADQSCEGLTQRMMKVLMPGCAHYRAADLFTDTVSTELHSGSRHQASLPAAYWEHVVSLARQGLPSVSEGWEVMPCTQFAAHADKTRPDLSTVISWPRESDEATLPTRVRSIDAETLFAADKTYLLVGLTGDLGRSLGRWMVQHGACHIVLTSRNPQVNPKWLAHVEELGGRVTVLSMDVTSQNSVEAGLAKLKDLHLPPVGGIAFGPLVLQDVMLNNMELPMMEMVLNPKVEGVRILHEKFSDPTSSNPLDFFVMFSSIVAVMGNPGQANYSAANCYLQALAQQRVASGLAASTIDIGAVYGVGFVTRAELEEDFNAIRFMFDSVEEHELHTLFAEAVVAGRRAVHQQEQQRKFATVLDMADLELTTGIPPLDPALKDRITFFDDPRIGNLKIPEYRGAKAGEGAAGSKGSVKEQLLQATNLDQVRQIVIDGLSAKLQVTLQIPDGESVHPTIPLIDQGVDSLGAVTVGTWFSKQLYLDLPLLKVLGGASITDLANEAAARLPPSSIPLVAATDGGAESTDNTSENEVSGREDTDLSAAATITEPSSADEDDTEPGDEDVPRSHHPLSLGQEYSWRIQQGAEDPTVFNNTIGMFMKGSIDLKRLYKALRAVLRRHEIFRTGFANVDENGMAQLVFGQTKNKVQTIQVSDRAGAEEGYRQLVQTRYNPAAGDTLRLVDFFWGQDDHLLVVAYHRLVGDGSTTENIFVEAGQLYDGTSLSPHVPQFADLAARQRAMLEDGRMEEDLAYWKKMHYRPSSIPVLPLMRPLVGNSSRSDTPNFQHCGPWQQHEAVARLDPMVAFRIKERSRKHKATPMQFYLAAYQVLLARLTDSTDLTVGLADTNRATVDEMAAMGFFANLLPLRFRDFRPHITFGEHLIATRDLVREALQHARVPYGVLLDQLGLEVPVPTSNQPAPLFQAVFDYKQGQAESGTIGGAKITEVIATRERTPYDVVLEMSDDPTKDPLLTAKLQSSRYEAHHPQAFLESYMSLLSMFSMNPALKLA

For `NC(=O)c1ccc[n+]([C@@H]2O[C@H](COP(=O)(O)OP(=O)(O)OC[C@H]3O[C@@H](n4cnc5c(N)ncnc54)[C@H](OP(=O)(O)O)[C@@H]3O)[C@@H](O)[C@H]2O)c1` [NADP+], the cryo-EM structure (LovB) was “The NADPH binding pocket with bound NADP^+ nicotinamide ring can be clearly identified”.

`NC(=O)C1=CN([C@@H]2O[C@H](COP(=O)(O)OP(=O)(O)OC[C@H]3O[C@@H](n4cnc5c(N)ncnc54)[C@H](OP(=O)(O)O)[C@@H]3O)[C@@H](O)[C@H]2O)C=CC1` [NADPH] was tested, and the “NADPH fluorescence (Ex 340 nm, Em 455 nm)” value (LovC) was “NADPH was oxidized in the presence of substrate over time”.

“lovastatin nonaketide synthase (LovB), full-length, His-tagged, Q9Y8A5 1-3038” was tested, and the stoichiometry N [1] was 2.
